This is an account of results in patent US10807932B2, “Benzosuberene analogues and related compounds with activity as anticancer agents” (Baylor University, priority 2018, dated 2020).

The target of data set [1] is T1, purified bovine brain tubulin (Bos taurus, UniProt P81947+Q6B856).
T1 construct: purified bovine brain tubulin; from tissue; host or cells: bovine brain
As to the kind of experiment: Inhibition of tubulin polymerization (turbidimetric, cell-free). The class given is biochemical. As to conditions: for IC50: 10 μM tubulin, extent of polymerization after 20 min at 30° C., read-out: Inhibition of tubulin polymerization IC50 (μM) ± SD; for inhibition of tubulin polymerization (in words): cell-free assay. The procedure: Inhibition of Tubulin Polymerization.
Tubulin polymerization was evaluated in 0.25 mL reaction mixtures (final volume) containing 1 mg/mL (10 μM) purified bovine brain tubulin, 0.8 M monosodium glutamate (pH 6.6), 4% (v/v) dimethyl sulfoxide, 0.4 mM GTP, and different compound concentrations. All components except GTP were preincubated for 15 min at 30° C. in 0.24 mL. The assay mixtures were cooled to 0° C., and 10 μL of 0.01 M GTP was added to each sample. Reaction mixtures were transferred to cuvettes held at 0° C. in Beckman DU-7400 and DU-7500 spectrophotometers equipped with electronic temperature controllers. The temperature was increased to 30° C., over about 30 s, and polymerization was followed turbidimetrically at 350 nm for 20 min.

Data set [2] relates to SK-OV-3 (ovarian) cancer cell line. As to the kind of experiment: Sulforhodamine B (SRB) growth inhibition assay, SK-OV-3. As to conditions: 48 h treatment. Type of data set: cell-based, human. From the text:
(§1) Cell Lines and Sulforhodamine B (SRB) Assay.
(§2) The sulforhodamine B (SRB) assay was used to assess growth inhibition of human cancer cells, as previously described. DU-145, SK-OV-3, and NCI-H460 cancer cell lines (obtained from ATCC) were maintained in T75 flasks (Corning) using high glucose DMEM supplemented with 10% fetal bovine serum (Gibco)/1% gentamicin sulfate for a maximum of 15 passages. For these experiments, cells were trypsinized, counted, and plated at 7000-8000 cells/well into 96-well plates (Corning) and incubated for 24 h at 37° C. in a humidified incubator in a 5% CO2 atmosphere. Compounds to be tested were dissolved in DMSO to generate a 10 mg/mL stock solution, and serial dilutions added in media to the plates. Doxorubicin (Sigma-Aldrich) and paclitaxel (Tokyo Chemical) were used as positive controls. After a 48 h treatment, the cells were fixed with trichloroacetic acid (10% final concentration), washed, dried, stained with SRB dye, washed to remove excess dye, and dried. SRB dye was solubilized, and absorbances were measured at wavelength 540 nm and normalized to values at wavelength 630 nm using an automated Biotek plate reader.

The subject of data set [3] is NCI-H460 (lung) cancer cell line. Kind of data set: Sulforhodamine B (SRB) growth inhibition assay, NCI-H460. As to conditions: 48 h treatment. Type of data set: cell-based, human.
Description: as §1, §2

The test system of data set [4] is DU-145 (prostate) cancer cell line. As to the kind of experiment: Sulforhodamine B (SRB) growth inhibition assay, DU-145. Type of data set: cell-based, human. Conditions: 48 h treatment.
Description: as §1, §2

Data set [5] deals with PC3-DAB2IP-luc human prostate tumor xenograft. Kind of data set: In vivo vascular disruption by dynamic bioluminescence imaging (BLI). Also on record: species or system Male Copenhagen rats. As to conditions: for vascular response by BLI light emission (in words): phosphate. From the text: In Vivo Vascular Disruption.
The human prostate cancer cell line (PC3) was modified by knock down of a tumor suppressor protein PC3-DAB2IP and further modified by transfection with a firefly luciferase reporter, as described in detail previously. Male Copenhagen rats (originally from Charles River and bred at UT Southwestern) were inoculated subcutaneously with 5×10^5 PC3-DAB2IP-luc cells mixed with 30% Matrigel® in the right thigh. These rats were approximately 6 weeks old and weighed between 100-120 g on date of implantation. Tumors were allowed to grow to a diameter of at least 1 cm before treatment commenced. Three rats were treated with VDA prodrug 89 (25 mg/mL in saline) administered IP. Rat 1 received 10 mg/kg followed by 40 mg/kg 24 h later and CA4P (30 mg/kg at 20 mg/mL in saline) was administered IP as a control 4 days later. Rat 2 received a single dose of 40 mg/kg of VDA prodrug 89, and rat 3 received 80 mg/kg of 89. Bioluminescence imaging (BLI) was performed before treatment (baseline), and at 4 and 24 h after treatment using an IVIS Spectrum® (Perkin-Elmer). Briefly, anesthetized rats (breathing oxygen with 3% isoflurane, Henry Schein Inc.) were injected subcutaneously in the foreback neck region with 120 mg/kg D-luciferin sodium salt (Gold Biotechnology, St. Louis, Mo.) and imaged over a time course of about 30 min. Fresh luciferin was administered at each time point. The resulting light intensity time curves were analyzed using Living Image® Software and light emission measured for a region of interest encompassing the tumor. All animal procedures were carried out in accordance with the Guide for the Care and Use of Laboratory Animals as adopted and promulgated by the U.S. National Institutes of Health as well as the Institutional Animal Care and Use Committee approved protocols (APN 2017-102168) at the University of Texas Southwestern Medical Center.
Ultimately, VDAs will be used in vivo, and thus it is crucial to understand both efficacy of vascular disruption and potential off target toxicity in vivo. As a preliminary investigation, the extent of vascular damage was assessed in a human prostate tumor line in rats treated with the water-soluble prodrug salt 89 compared to CA4P as control. Many imaging methods have been developed to assess vascular disruption non-invasively in vivo. Dynamic bioluminescence imaging (BLI) was favored for initial validation of VDA activity since it provides a fast, non-invasive and easy method and allows comparison of repeat or sequential investigations. BLI does require the use of cells transfected to express luciferase (luc), but these are commonly available and we have used this approach extensively as have others. The human prostate cancer PC3 line was used, in which the tumor suppressor protein DAB2IP had been knocked down and luciferase introduced. BLI requires administration of luciferin substrate, which readily crosses membranes and is carried throughout the vasculature. The measurement of light emission dynamics is related to vascular delivery of the luciferin substrate, and thus it provides a measure of vascular patency. Disruption of tumor vasculature blocks delivery of the substrate and consequently results in a quantifiable decrease in bioluminescent signal.

For data set [6] the following is noted: 30 mg/kg, rats, shown previously; cited from earlier work.
Another data set has as its system tubulin. Kind of data set: Colchicine binding assay (inhibition of [3H]colchicine binding to tubulin). Conditions: 1.0 μM tubulin, 5.0 μM [3H]colchicine. On the procedure:
Colchicine Binding Assay.
Inhibition of [^3H]colchicine binding to tubulin was measured in 0.1 mL reaction mixtures, each containing 1.0 μM tubulin, 5.0 μM [^3H]colchicine (Perkin-Elmer), 5% (v/v) dimethyl sulfoxide, […], and components that stabilize the colchicine binding activity of tubulin (1.0 M monosodium glutamate [adjusted to pH 6.6 with HCl in a 2.0 M stock solution], 0.5 mg/mL bovine serum albumin, 0.1 M glucose-1-phosphate, 1.0 mM MgCl2, and 1.0 mM GTP). […] Reactions were stopped with 2.0 mL of ice-cold water, with the reaction mixtures being placed on ice. Each diluted sample was poured onto a stack of two DEAE-cellulose filters (GE Biomedical), followed by 3 successive 2 mL aliquots of ice-cold water. A reduced vacuum was used to remove excess water from the filters, which were washed three times with 2 mL water and placed into vials containing 5 mL of Biosafe II scintillation cocktail. Samples were counted 18 h later in a Beckman scintillation counter. Samples with inhibitors were compared to samples with no inhibitor, and percent inhibition was determined, correcting all values for the amount of radiolabel bound to the filters in the absence of tubulin.

Where “and” joins values, the source holds several entries; their conditions need not be identical. Identical values can stand only once. Entries after “also recorded” stand apart in the source; their conditions may differ.

T1 sequence (Q6B856 whole entry): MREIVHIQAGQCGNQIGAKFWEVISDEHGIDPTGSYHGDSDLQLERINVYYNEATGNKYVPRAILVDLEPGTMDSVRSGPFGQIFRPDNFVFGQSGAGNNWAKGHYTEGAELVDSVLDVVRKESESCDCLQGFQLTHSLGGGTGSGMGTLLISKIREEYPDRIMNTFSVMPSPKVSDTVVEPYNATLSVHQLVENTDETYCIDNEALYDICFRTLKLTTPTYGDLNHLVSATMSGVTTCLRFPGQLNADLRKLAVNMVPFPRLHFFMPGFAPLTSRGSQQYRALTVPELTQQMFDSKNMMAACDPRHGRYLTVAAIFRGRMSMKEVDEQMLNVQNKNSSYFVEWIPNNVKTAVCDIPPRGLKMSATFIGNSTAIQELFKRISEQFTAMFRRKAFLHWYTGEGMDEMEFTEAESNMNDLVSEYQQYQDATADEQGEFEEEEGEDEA
T1 sequence (P81947 whole entry): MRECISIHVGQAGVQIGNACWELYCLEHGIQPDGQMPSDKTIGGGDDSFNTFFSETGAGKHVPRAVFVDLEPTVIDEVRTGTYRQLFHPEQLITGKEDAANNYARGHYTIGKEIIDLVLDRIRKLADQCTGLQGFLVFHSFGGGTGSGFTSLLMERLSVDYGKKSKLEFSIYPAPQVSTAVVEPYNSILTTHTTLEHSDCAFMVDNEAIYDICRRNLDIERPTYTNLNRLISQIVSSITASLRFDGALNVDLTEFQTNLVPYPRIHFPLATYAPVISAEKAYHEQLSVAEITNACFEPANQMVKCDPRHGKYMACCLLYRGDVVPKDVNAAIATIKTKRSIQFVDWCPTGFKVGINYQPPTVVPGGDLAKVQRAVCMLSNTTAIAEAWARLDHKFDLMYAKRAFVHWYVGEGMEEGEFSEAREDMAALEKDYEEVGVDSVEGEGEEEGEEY

With `COc1ccc(/C=C\c2cc(OC)c(OC)c(OC)c2)cc1OP(=O)(O)O` [CA4P, combretastatin A-4 phosphate, reference compound], the IC50 in data set [1] was > 40 µM. Besides, the GI50 in data set [2] came out at 1.19 nM; in data set [3], 1.94 nM; in data set [4], 3.23 nM. Moreover, the “vascular response by BLI (in words)” value in data set [5] (30 mg/kg IP, given 4 days after 89 to the same rat) is recorded as “very similar effect”. Besides, in data set [6], the “vascular shutdown (in words)” value is “extensive vascular shutdown”.
On to `CCOC(=O)c1c(OC)ccc2c1CCCC=C2c1cc(OC)c(OC)c(OC)c1` [Compound 47, Ethyl 3-methoxy-9-(3,4,5-trimethoxyphenyl)-6,7-dihydro-5H-benzo[7]annulene-4-carboxylate], for which the IC50 in data set [1] was determined as 1 ± 0.07 µM. Besides, in the data set with tubulin (compound at 5 μM), the “% Inhibition of colchicine binding ± SD” value is 47 ± 1 (5 μM) %. Also, the GI50 in data set [2] (Homo sapiens, SK-OV-3) worked out at 299 nM; in data set [3] (Homo sapiens, NCI-H460) it was 353 nM; in data set [4] (Homo sapiens, DU-145), 631 nM.
Take `COc1cc(C2=CC(O)CCc3c2ccc(OC)c3OC)cc(OC)c1OC` (stereo not shown) [Compound 57, 3,4-Dimethoxy-9-(3,4,5-trimethoxyphenyl)-6,7-dihydro-5H-benzo[7]annulen-7-ol]: the IC50 in data set [1] stood at 3.8 ± 0.5 µM. For the same molecule, the “inhibition of tubulin polymerization (in words)” value (from here on “inhibition … (in words)”) in data set [1] was “reduced inhibition of tubulin polymerization”. Moreover, the “% Inhibition of colchicine binding ± SD” value with tubulin (compound at 5 μM) is 28 ± 4 (5 μM) %. Besides, the GI50 in data set [2] (Homo sapiens, SK-OV-3) came out at 263 nM; in data set [3] (Homo sapiens, NCI-H460) it was 432 nM; in data set [4] (Homo sapiens, DU-145), 439 nM.
In the case of `COc1cc(C2(O)C=CCCc3c2ccc(OC)c3OC)cc(OC)c1OC` (stereo not shown) [Compound 76, 1,2-Dimethoxy-5-(3,4,5-trimethoxyphenyl)-8,9-dihydro-5H-benzo[7]annulen-5-ol], the IC50 in data set [1] is > 20 µM. For the same molecule, the “inhibition … (in words)” value in data set [1] is listed as “lack of tubulin activity”. In addition, the “% Inhibition of colchicine binding ± SD” value with tubulin (compound at 5 μM) is 0 (5 μM) %. For the same molecule, the GI50 in data set [2] (Homo sapiens, SK-OV-3) was 27200 nM; in data set [3] (Homo sapiens, NCI-H460) it was 70500 nM; in data set [4] (Homo sapiens, DU-145) it was 26000 nM.
For `COc1cc(C2CCc3c(ccc(OC)c3OC)C(=O)C2)cc(OC)c1OC` (stereo not shown) [Compound 77, 1,2-Dimethoxy-7-(3,4,5-trimethoxyphenyl)-6,7,8,9-tetrahydro-5H-benzo[7]annulen-5-one], in data set [1], the IC50 was > 20 µM. The “inhibition … (in words)” value in data set [1] is listed as “lack of activity”. Further, the “% Inhibition of colchicine binding ± SD” value in the data set on tubulin (compound at 5 μM) is 0 (5 μM) %. Moreover, the GI50 in data set [2] (Homo sapiens, SK-OV-3) was 5770 nM; in data set [3] (Homo sapiens, NCI-H460) it was 2000 nM; in data set [4] (Homo sapiens, DU-145), 4450 nM.
As to `COc1ccc2c(c1O)CC=CC=C2c1cc(OC)c(OC)c(OC)c1` [Compound 88, 3-Methoxy-9-(3,4,5-trimethoxyphenyl)-5H-benzo[7]annulen-4-ol], the IC50 in data set [1] is 0.48 ± 0.08 µM. The “% Inhibition of colchicine binding ± SD” value is on record as 68 ± 1% in the data set on tubulin (compound at 0.5 μM) and 95 ± 0.8% in the data set on tubulin (compound at 5 μM). The GI50 was 6.9 nM in data set [2] (Homo sapiens, SK-OV-3); 58.1 nM in data set [3] (Homo sapiens, NCI-H460); 97.6 nM in data set [4] (Homo sapiens, DU-145).
For `COc1cc(C2=CC=CCc3c2ccc(OC)c3OP(=O)([O-])[O-])cc(OC)c1OC.[Na+].[Na+]` [Compound 89, Sodium 3-methoxy-9-(3,4,5-trimethoxyphenyl)-5H-benzo[7]annulen-4-yl phosphate], the IC50 in data set [1] worked out at 16 ± 0.7 µM. The “inhibition … (in words)” value in data set [1] is “inactive”. Moreover, the “% Inhibition of colchicine binding ± SD” value with tubulin (compound at 5 μM) is on record as 45 ± 2 (5 μM) %. The GI50 in data set [2] (Homo sapiens, SK-OV-3) was 15.3 nM; in data set [3] (Homo sapiens, NCI-H460) it was 29.1 nM; in data set [4] (Homo sapiens, DU-145) it was 23.9 nM. For the same molecule, the “vascular response by BLI light emission (in words)” value is given as “no vascular perturbation; also recorded: minimal change in light emission” in data set [5] (10 mg/kg IP, rat) and “substantial vascular shutdown; also recorded: substantially diminished light emission; also recorded: revealed vascular disruption” in data set [5] (40 mg/kg IP, 4 h, rat). The “recovery of BLI signal (in words)” value in data set [5] (40 mg/kg IP, 24 h, rat) was “substantial recovery by 24 h”. Besides, the “appearance of the rats” value in data set [5] (40 mg/kg IP, at 48 h) was “appeared healthy”. The tolerability entry in data set [5] (80 mg/kg IP, rat) is “well tolerated”. Also, the “vascular disruption (in words)” value in data set [5] (80 mg/kg IP, rat) was “did not show additional vascular disruption”.
Consider `COc1ccc2c(c1O)CCCC1=C2c2cc(OC)c(OC)c(OC)c2C1=O` [Compound 91, 4-Hydroxy-3,9,10,11-tetramethoxy-6,7-dihydrodibenzo[a,h]azulen-8(5H)-one], for which, in data set [1], the IC50 was found to be 4.2 ± 0.2 µM. Moreover, the “% Inhibition of colchicine binding ± SD” value in the data set with tubulin (compound at 5 μM) is on record as 45 ± 4 (5 μM) %. The GI50 in data set [2] (Homo sapiens, SK-OV-3) was found to be 39.9 nM; in data set [3] (Homo sapiens, NCI-H460), 105 nM; in data set [4] (Homo sapiens, DU-145), 32.1 nM.
`COc1ccc2c(c1O)CCCC=C2c1cc(OC)c(OC)c(OC)c1` [KGP18, 3-Methoxy-9-(3,4,5-trimethoxyphenyl)-6,7-dihydro-5H-benzo[7]annulen-4-ol, reference compound]: the IC50 in data set [1] was ~0.85 µM and 0.85 µM. Besides, the “% Inhibition of colchicine binding ± SD” value is 73 ± 5% with tubulin (compound at 1 μM) and 95 ± 0.5% in the data set with tubulin (compound at 5 μM). Besides, the GI50 in data set [2] (Homo sapiens, SK-OV-3) was 0.0543 nM; in data set [3] (Homo sapiens, NCI-H460), 0.0418 nM; in data set [4] (Homo sapiens, DU-145) it was 0.0249 nM.
